System: subjects with EDS due to OSA
Test: Standardized on-road highway driving test, OSA study
Assay type: in vivo, human
Method: This was a randomized, double-blind, placebo-controlled, crossover, on-road driving study in subjects with EDS due to OSA. A total of 40 adult subjects were planned for enrollment, and 34 subjects were randomized. Subjects received either solriamfetol (150 mg QD for 3 days, followed by 300 mg QD for 4 days) or matching placebo for 7 days, and then crossed over to receive the other treatment regimen for 7 days (FIG. 4). […] The PVT was administered predose and prior to each driving test. Actigraphy and a sleep diary were used to assess daily sleep patterns. The Toronto Hospital Alertness Test (THAT) was administered at baseline and at the end of each treatment period. A Follow-up Visit was performed approximately 7 days after the final dose of study drug. Subjects were recruited at clinical sites. Eligibility was determined through screening procedures (including a Maintenance of Wakefulness Test [MWT]) at the clinical sites after the washout of prohibited medications, and a practice driving test at the driving test site. A total of 40 adult subjects were planned for enrollment; 34 subjects were randomized and analyzed for safety and efficacy.
Assessments to determine driving performance included: standard deviation of lateral position (SDLP; Verster and Roth 2011; Raemakers 2017), standard deviation of speed (SDS), and number of driving lapses (also known as lane drift, defined as deviations>100 cm from the mean lateral position and from the absolute lateral position for 8 seconds; Vinckenbosch 2020). Driving performance was assessed using a standardized on-road driving test on Day 7 (Visit 4) and on Day 14 (Visit 5). A practice driving test was performed during the screening period to familiarize the subject with the vehicle and test scenario, assess if the subject could adequately operate the manual transmission vehicle, and determine if any safety concerns existed that excluded the subject from participating in the study.
During each drive, subjects operated a specially instrumented vehicle for approximately 1 hour over a 100 km (61 mile) primary highway circuit. During each driving test, each subject was accompanied by a licensed driving instructor who had access to dual controls (i.e., brakes, clutch, and accelerator). The subject or instructor could stop the test if either considered it unsafe to continue. The subject was instructed to drive with a steady lateral position between the delineated boundaries of the slower (right) traffic lane, while maintaining a constant speed of
95 km/h (58 mph). Subjects could deviate from these instructions only to pass a slower vehicle, to respond to a slower speed in traffic ahead of him/her and to leave and re-enter the highway at the turnaround point. During the drive, the vehicle's speed and lateral distance to the left lane line were continuously recorded and captured on an onboard computer disk file. Subjects were transported to and from the driving circuit on each test day.
The primary analysis was based on the mITT population. The primary outcome measure of mean change in SDLP was analyzed using a repeated mixed effect analysis of variance (ANOVA) model. The model included treatment (solriamfetol and placebo), driving performance test (2 hours postdose and 6 hours postdose), treatment period, treatment sequence, and treatment by driving performance test interaction as fixed effects and subject as a random effect. The 2-sided 95% confidence intervals of solriamfetol-placebo changes for SDLP based on the repeated mixed effect ANOVA model was constructed for each driving performance test.
Individual changes (solriamfetol minus placebo) in driving performance were measured by SDLP at 2 hours and 6 hours postdose. The Maximum McNemar symmetry analyses (Laska et al. 2012) were used to detect an asymmetry in the distribution of the change in driving performance at 2 hours and 6 hours post-dose. […]

[1] = 2 hours postdose, mITT, primary analysis, listed as JZP-110
[2] = 2 hours postdose, sequence JZP-110/Placebo, mITT
[3] = 2 hours postdose, sequence Placebo/JZP-110, mITT
[4] = 6 hours postdose, sequence JZP-110/Placebo, mITT
[5] = 6 hours postdose, sequence Placebo/JZP-110, mITT

In the case of `NC(=O)OC[C@H](N)Cc1ccccc1` [Solriamfetol, (R)-2-amino-3-phenylpropyl carbamate], the “Maximum McNemar test, distribution of change in driving performance” value (2 hours and 6 hours post-dose, mITT) is reported as “did not show asymmetry”, the “driving lapses, LS mean difference solriamfetol vs placebo” value (2 hours postdose) is reported as −1.128 lapses and the “standard deviation of speed (SDS), LS mean difference” value (2 hours postdose) is reported as 0.068 km/h. For the same molecule, the “SDLP, mean (SD), observed” value (2 hours postdose, day 7, 300 mg/day, mITT) was 18.83 (3.690) cm, the “SDLP, mean (SD) difference (JZP-110 − Placebo)” value (2 hours postdose, mITT) was −1.11 (2.520) cm and the “SDLP, median difference (JZP-110 − Placebo)” value (2 hours postdose, mITT) was −0.78 cm. For the same molecule, the “SDLP, median, observed” value (2 hours postdose, mITT) was 18.39 cm, the “SDLP, LS mean (SE)” value (2 hours postdose, mITT, primary analysis) was 18.83 cm and the “SDLP, LS mean (SE)” value [1] was 18.83 (0.627) cm. The “SDLP, LS mean difference (JZP-110 − Placebo)” value [1] was −1.084 cm, the “SDLP, mean (SD)” value [2] was 18.58 (3.831) cm and the “SDLP, mean difference JZP-110 vs placebo” value [2] was −0.26 cm. The “SDLP, median” value [2] was 17.98 cm, the “SDLP, median difference JZP-110 vs placebo” value [2] was −0.18 cm and the “SDLP, mean difference JZP-110 vs placebo” value [3] was −1.91 cm. For the same molecule, the “SDLP, median” value [3] was 20.00 cm, the “SDLP, median difference JZP-110 vs placebo” value [3] was −2.46 cm and the “SDLP, mean (SD)” value (2 hours postdose, sequence Placebo/JZP-110, mITT, listed as JZP-110) was 19.08 (3.643) cm. The “SDLP, mean (SD)” value (2 hours postdose, sequence Placebo/JZP-110, mITT, listed as solriamfetol) was 19.08 cm, the “driving lapses, LS mean difference solriamfetol vs placebo” value (6 hours postdose) was 0.050 lapses and the “standard deviation of speed (SDS), LS mean difference” value (6 hours postdose) was −0.109 km/h. For the same molecule, the “SDLP, LS mean difference, sensitivity analysis” value (6 hours postdose, PP population) was −1.037 cm, the “SDLP, LS mean (SE)” value (6 hours postdose, mITT) was 19.24 (0.631) cm and the “SDLP, LS mean difference (JZP-110 − Placebo)” value (6 hours postdose, mITT) was −0.804 cm. The “SDLP, mean (SD)” value [4] was 19.23 (3.224) cm, the “SDLP, mean difference JZP-110 vs placebo” value [4] was 0.20 cm and the “SDLP, median” value [4] was 18.92 cm. For the same molecule, the “SDLP, median difference JZP-110 vs placebo” value [4] was 0.43 cm, the “SDLP, mean difference JZP-110 vs placebo” value [5] was −1.91 cm and the “SDLP, median” value [5] was 19.24 cm. The “SDLP, median difference JZP-110 vs placebo” value [5] was −1.33 cm, the “SDLP, mean (SD)” value (6 hours postdose, sequence Placebo/JZP-110, mITT, listed as JZP-110) was 19.23 (3.593) cm and the “SDLP, mean (SD)” value (6 hours postdose, sequence Placebo/JZP-110, mITT, listed as solriamfetol) was 19.23 cm. For the same molecule, the “SDLP, difference in median values between the 2 treatments (solriamfetol-placebo)” value (placebo as initial treatment, both time points (2 and 6 hours postdose)) was −1.91 cm, the “subjects who failed to complete the driving test” value (solriamfetol condition) was 3 subjects and the “single McNemar test: proportion improved drivers versus impaired” value (threshold of 1.0 cm, 2 h post dose) was 29.4%.

Source: patent publication US20260199282A1, “METHODS AND COMPOSITIONS FOR IMPROVING DRIVING PERFORMANCE” (priority 2022, published 2026)
